From patent US20070149456A1, “Epithelial sodium channel inhibiting agents and uses therefor” (University of Pittsburgh, priority 2005, published 2007)
Read-outs that look alike come from different tables or passages of the source.

Biological target: T1, mouse ENaC (Mus musculus, UniProt Q61180+Q9WU38+Q9WU39, DEL206-231)
T1 construct: expressed in transfected cells; host or cells: Xenopus laevis oocytes (cRNA injection)
T1 sequence (Q61180 with tags, fused parts or gaps DEL206-231): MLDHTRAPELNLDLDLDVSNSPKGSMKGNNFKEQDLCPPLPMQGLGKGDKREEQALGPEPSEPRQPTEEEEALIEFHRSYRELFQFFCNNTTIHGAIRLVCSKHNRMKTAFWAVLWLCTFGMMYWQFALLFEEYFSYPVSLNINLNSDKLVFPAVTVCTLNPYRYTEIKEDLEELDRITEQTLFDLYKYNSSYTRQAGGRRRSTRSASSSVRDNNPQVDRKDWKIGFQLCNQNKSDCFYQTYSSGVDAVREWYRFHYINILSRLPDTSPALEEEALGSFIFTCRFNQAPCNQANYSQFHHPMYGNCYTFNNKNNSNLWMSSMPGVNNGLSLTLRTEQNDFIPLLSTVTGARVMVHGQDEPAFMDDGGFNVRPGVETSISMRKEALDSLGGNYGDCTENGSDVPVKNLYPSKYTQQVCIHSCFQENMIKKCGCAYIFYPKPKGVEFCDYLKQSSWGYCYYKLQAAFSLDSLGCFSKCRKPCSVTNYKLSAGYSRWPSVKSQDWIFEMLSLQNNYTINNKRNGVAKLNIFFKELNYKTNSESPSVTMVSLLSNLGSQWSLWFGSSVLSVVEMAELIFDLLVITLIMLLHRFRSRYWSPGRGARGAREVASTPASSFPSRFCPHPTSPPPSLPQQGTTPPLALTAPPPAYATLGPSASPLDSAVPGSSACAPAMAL
T1 sequence (Q9WU38 1-638): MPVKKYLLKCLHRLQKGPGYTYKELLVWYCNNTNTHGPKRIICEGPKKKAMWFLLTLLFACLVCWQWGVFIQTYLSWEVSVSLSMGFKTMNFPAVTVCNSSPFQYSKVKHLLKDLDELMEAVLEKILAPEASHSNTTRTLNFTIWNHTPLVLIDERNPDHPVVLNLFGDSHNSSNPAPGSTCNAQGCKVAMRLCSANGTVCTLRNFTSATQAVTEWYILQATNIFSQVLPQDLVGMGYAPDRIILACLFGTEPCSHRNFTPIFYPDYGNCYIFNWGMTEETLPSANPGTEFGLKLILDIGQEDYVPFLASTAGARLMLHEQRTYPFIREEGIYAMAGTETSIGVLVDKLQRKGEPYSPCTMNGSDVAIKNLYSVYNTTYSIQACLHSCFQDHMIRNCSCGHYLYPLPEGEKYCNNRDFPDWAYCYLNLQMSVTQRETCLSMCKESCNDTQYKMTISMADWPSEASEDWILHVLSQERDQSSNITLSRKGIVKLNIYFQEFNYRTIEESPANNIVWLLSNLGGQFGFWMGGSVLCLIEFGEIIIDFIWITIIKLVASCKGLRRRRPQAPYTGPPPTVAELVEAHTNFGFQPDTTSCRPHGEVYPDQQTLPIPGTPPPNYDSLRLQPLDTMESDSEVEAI
T1 sequence (Q9WU39 1-655): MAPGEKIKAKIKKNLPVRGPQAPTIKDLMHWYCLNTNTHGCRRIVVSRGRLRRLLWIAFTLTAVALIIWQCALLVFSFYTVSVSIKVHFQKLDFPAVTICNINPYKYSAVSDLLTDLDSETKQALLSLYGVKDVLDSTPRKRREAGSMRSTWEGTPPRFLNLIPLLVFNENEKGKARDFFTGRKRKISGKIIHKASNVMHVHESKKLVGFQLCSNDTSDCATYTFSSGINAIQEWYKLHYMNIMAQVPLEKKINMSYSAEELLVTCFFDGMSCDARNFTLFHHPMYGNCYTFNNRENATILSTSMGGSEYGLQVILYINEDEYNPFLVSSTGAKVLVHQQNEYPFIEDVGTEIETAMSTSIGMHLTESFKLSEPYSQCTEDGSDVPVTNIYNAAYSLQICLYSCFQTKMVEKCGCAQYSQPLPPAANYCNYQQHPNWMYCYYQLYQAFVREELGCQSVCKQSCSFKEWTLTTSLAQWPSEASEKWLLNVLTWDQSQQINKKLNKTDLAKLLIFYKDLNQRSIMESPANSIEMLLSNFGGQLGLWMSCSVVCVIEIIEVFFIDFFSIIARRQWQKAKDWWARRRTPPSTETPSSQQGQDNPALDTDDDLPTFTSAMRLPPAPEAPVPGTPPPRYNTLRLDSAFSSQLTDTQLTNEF
Assay: Two-electrode voltage clamp, amiloride-sensitive whole cell Na+ current in Xenopus oocytes expressing wild-type αβγ ENaC
Assay type: cell-based
Source text: Oocyte Expression—cRNAs for α, β, γ mouse ENaC (wild-type and mutant) subunits and mouse prostasin were synthesized with T3 or T7 m-Message mMachineTM (Ambion, Austin, Tex.). Subunits carrying furin cleavage consensus site mutations and the corresponding wild-type subunits have amino-terminal HA and carboxyl-terminal V5 tags (Hughey, R. P., Bruns, J. B., Kinlough, C. L., Harkleroad, K. L., Tong, Q., Carattino, M. D., Johnson, J. P., Stockand, J. D., and Kleyman, T. R. (2004) J. Biol. Chem. 279, 18111-18114 18). Stage V-VI Xenopus laevis oocytes were pretreated with 1.5 mg/ml of type IV collagenase and injected with 0.5-2 ng of cRNA/subunit. Injected oocytes were maintained as previously reported (Carattino, M. D., Hill, W. G., and Kleyman, T. R. (2003), Arachidonic Acid Regulates Surface Expression of Epithelial Sodium Channels, J Biol. Chem. 278, 36202-36213 29).
Two-electrode Voltage Clamp—Two-electrode voltage clamp (TEV) was performed as previously described (Carattino, M. D., Hill, W. G., and Kleyman, T. R. (2003) J Biol. Chem. 278, 36202-36213 29). The extracellular solution (TEV solution) was (in mM): 110 NaCl, 2 KCl, 1.54 CaCl2, 10 HEPES, pH 7.4, or otherwise as indicated. […] Experiments with oocytes co-expressing ENaC and prostasin and the corresponding controls were performed in the presence of aprotinin (1 μM) to impede any potential degradation of α-26 by prostasin.
Data and Statistical Analyses—and mean time of inhibition are expressed as the mean with a 95% confidence interval (CI); otherwise, data were expressed as the mean ±S.E. (n), where “n” equals the number of independent experiments analyzed. IC50 was estimated from normalized currents plotted as a function of the peptide concentration fitted, as shown in Equation 1 y=t/(1+10^(logX−log/C50)) (Eq. 1) where y is the response variable, X is the concentration of peptide, and IC50 is the concentration of peptide that provokes a response half way between the baseline (t) and maximum response. […] Results

Ac-DLRGALPHPLQRLRTPPPPNPARSAR-NH2 [α-26]
Ki: ~3000 nM
time required to achieve half maximal inhibition (1 μM α-26): 42 s
IC50 (amiloride-sensitive current, 3 min perfusion with peptide (FIG. 3A), read-out: IC50, inhibition of wild-type αβγ): 2800 nM
IC50 (holding potential −20 mV, read-out: IC50 at holding potential −20 mV): 2900 nM
IC50 (holding potential −100 mV, read-out: IC50 at holding potential −100 mV): 2900 nM
reversibility of block (α-26 1 μM, washout (FIG. 3D)): reversible inhibitor
